Measured values as given in patent US11597724B2, “Herbicidally active 3-phenylisoxazoline-5-carboxamides of tetrahydro and dihydrofuran carboxylic acids and esters” (Bayer Aktiengesellschaft, priority 2017, dated 2023).

Columns and labels:
Type in all cases: in vivo
[1] = system: Avena fatua; assay: Pre-emergence herbicidal activity against AVEFA; conditions: dosage 80 g/ha; for pest or weed control at 80 g/ha: Avena fatua, 504 h, read-out: Pre-emergence herbicidal activity against AVEVA in % (AVEFA)
Description: (§1) 1. Pre-Emergence Herbicidal Action and Crop Plant Compatibility Seeds of monocotyledonous and dicotyledonous weed plants and crop plants are placed in plastic or wood fiber pots and covered with soil. The compounds of the invention, formulated in the form of wettable powders (WP) or as emulsion concentrates (EC), are then applied onto the surface of the covering soil as aqueous suspension or emulsion with addition of 0.5% additive at a water application rate of 600 l/ha (converted). After the treatment, the pots are placed in a greenhouse and kept under good growth conditions for the trial plants. After about 3 weeks, the effect of the preparations is scored visually in comparison with untreated controls as percentages. For example, 100% activity=the plants have died, 0% activity=like control plants. AMARE: Amaranthus retroflexus AVEFA: Avena fatua

[2] = system: Polygonum convolvulus; assay: Pre-emergence herbicidal activity against POLCO; conditions: dosage 80 g/ha; for pest or weed control at 80 g/ha: Fallopia convolvulus, 504 h
Description: as §1, with “POLCO: Polygonum convolvulus SETVI: Setaria viridis” for “AMARE: Amaranthus retroflexus AVEFA: Avena fatua”

[3] = system: Veronica persica; assay: Pre-emergence herbicidal activity against VERPE; conditions: Veronica persica, 504 h, dosage 80 g/ha
Description: as §1, with “STEME: Stellaria media VERPE: Veronica persica” for “AMARE: Amaranthus retroflexus AVEFA: Avena fatua”

[4] = system: Veronica persica; assay: Post-emergence herbicidal activity against VERPE; conditions: dosage 320 g/ha; for pest or weed control at 320 g/ha: Veronica persica, 504 h
Outline: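 Greenhouse plants treated at one-leaf stage, 2–3 weeks after sowing, by spraying WP or EC formulations with 0.5% additive at 600 l/ha water. Visual rating about 3 weeks later versus untreated controls (100% = plants dead, 0% = like controls).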

[5] = system: Alopecurus myosuroides; assay: Post-emergence herbicidal activity against ALOMY; conditions: dosage 320 g/ha, rated about 3 weeks after treatment; for pest or weed control at 320 g/ha: Alopecurus myosuroides, 504 h
Outline: (§2)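 Greenhouse-grown plants treated at one-leaf stage, 2 to 3 weeks after sowing, with WP or EC formulations sprayed as aqueous suspension/emulsion plus 0.5% additive at 600 l/ha. Activity rated visually about 3 weeks later versus untreated controls (100% = plants dead, 0% = like control).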

[6] = system: Avena fatua; assay: Post-emergence herbicidal activity against AVEFA; conditions: dosage 320 g/ha, rated about 3 weeks after treatment; for pest or weed control at 320 g/ha: Avena fatua, 504 h
Outline: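 Greenhouse pots of sandy loam; plants sprayed at one-leaf stage, 2 to 3 weeks after sowing, with WP or EC formulations in water plus 0.5% additive at 600 l/ha. Activity rated visually after about 3 weeks against untreated controls (100% = plants dead, 0% = like control).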

[7] = system: Setaria viridis; assay: Pre-emergence herbicidal activity against SETVI; conditions: dosage 80 g/ha; for pest or weed control at 80 g/ha: Setaria viridis, 504 h
Description: as §1, with “POLCO: Polygonum convolvulus SETVI: Setaria viridis” for “AMARE: Amaranthus retroflexus AVEFA: Avena fatua”

[8] = system: Polygonum convolvulus; assay: Post-emergence herbicidal activity against POLCO; conditions: dosage 320 g/ha, rated about 3 weeks after treatment; for pest or weed control at 320 g/ha: Fallopia convolvulus, 504 h
Outline: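 Greenhouse weeds in sandy loam were sprayed at the one-leaf stage, 2–3 weeks after sowing, with WP or EC formulations plus 0.5% additive at 600 l/ha water. About 3 weeks later, damage was rated visually against untreated controls, where 100% means plants dead and 0% means like control.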

[9] = system: Abutilon theophrasti; assay: Post-emergence herbicidal activity against ABUTH; conditions: dosage 320 g/ha, rated about 3 weeks after treatment; for pest or weed control at 320 g/ha: Abutilon theophrasti, 504 h
Outline: as §2

SMILES	pest or weed control at 80 g/ha [1]	pest or weed control at 80 g/ha [2]	pest or weed control at 80 g/ha [3]	pest or weed control at 320 g/ha [4]	pest or weed control at 320 g/ha [5]	pest or weed control at 320 g/ha [6]	pest or weed control at 80 g/ha [7]	pest or weed control at 320 g/ha [8]	pest or weed control at 320 g/ha [9]	Pre-emergence herbicidal activity against AVEVA in % (AVEFA) [1]	Pre-emergence herbicidal activity against POLCO in % [2]	Post-emergence herbicidal activity against VERPE in % [4]	Post-emergence herbicidal activity against ALOMY in % [5]	Post-emergence herbicidal activity against ABUTH in % [9]	Post-emergence herbicidal activity against AVEFA in % [6]	Pre-emergence herbicidal activity against SETVI in % [7]	Post-emergence herbicidal activity against POLCO in % [8]
COC(=O)[C@H]1C[C@@H](NC(=O)[C@@]2(C)CC(c3cc(F)cc(F)c3)=NO2)CO1 (mixture of isomers) [I-09, methyl cis-4-[[(5R)-3-(3,5-difluorophenyl)-5-methyl-4H-isoxazole-5-carbonyl]amino]tetrahydrofuran-2-carboxylate]	90%	100%	90%	80%	90%	90%	80%	80%									
C=C[C@]1(C(=O)N[C@H]2CO[C@@H](C(=O)OCC)C2)CC(c2cc(F)cc(F)c2)=NO1 (mixture of isomers) [I-35, ethyl cis-4-[[(5S)-3-(3,5-difluorophenyl)-5-vinyl-4H-isoxazole-5-carbonyl]amino]tetrahydrofuran-2-carboxylate]	100%	100%	100%	80%	100%	100%	100%		80%								
C=C[C@]1(C(=O)N[C@H]2CO[C@@H](C(=O)OCc3ccccc3)C2)CC(c2cc(F)cc(F)c2)=NO1 (mixture of isomers) [I-37, benzyl cis-4-[[(5S)-3-(3,5-difluorophenyl)-5-vinyl-4H-isoxazole-5-carbonyl]amino]tetrahydrofuran-2-carboxylate]	100%	100%	100%	80%		100%	100%		80%								
CC1(C(=O)NC2COC(C(=O)O)C2)CC(c2cc(F)cc(F)c2)=NO1 (mixture of isomers) [I-41]										100%	90%	80%	100%	80%	100%	100%	90%
CCOC(=O)[C@H]1C[C@@H](NC(=O)C2(C)CC(c3cccc(F)c3)=NO2)CO1 (mixture of isomers) [I-30, ethyl cis-4-[[(5RS)-3-(3-fluorophenyl)-5-methyl-4H-isoxazole-5-carbonyl]amino]tetrahydrofuran-2-carboxylate]	80%	90%		80%	100%	100%	100%	80%									
CC(C)OC(=O)[C@H]1C[C@@H](NC(=O)C2(C)CC(c3cccc(F)c3)=NO2)CO1 (mixture of isomers) [I-32, isopropyl cis-4-[[(5RS)-3-(3-fluorophenyl)-5-methyl-4H-isoxazole-5-carbonyl]amino]tetrahydrofuran-2-carboxylate]		90%		80%	90%	100%	100%	80%	80%								
